Experimental data: patent publication US20160022772A1, “Cytokine Receptors as Targets for Hypertension Therapy and Methods of Use” (Duke University, priority 2014, published 2016)
“Also recorded” adds a separate entry of the source.

Tests used:
NO generation = experiment: Blockade of NO generation with L-NAME in Ang II-infused WT and IL-1R KO mice, blood pressure; type: in vivo; settings: L-NAME in drinking water from day 7 of Ang II, by day 14
Text: Because IL-1 is secreted by macrophages, macrophage infiltration into the kidneys of the experimental animals was examined. After 4 weeks of hypertension, IL-1R KO kidneys contained more F4/80+ macrophages than WTs (18±1 vs. 14±2 per HPF; p=0.03). […] In turn, the KO group had enhanced renal mRNA expression of the NO-generating enzyme iNOS (1.7±0.3 vs. 1.0±0.2 au; p<0.05) and higher excretion of NO metabolites vs. WTs (152±46 vs. 60±15 nmol/mg Cr; p=0.05). NO inhibits renal sodium (Na) reabsorption, and during the 2″d wk of Ang II infusion when WT and KO BPs separated, only the KOs entered negative Na balance (−16.8±16.8 vs. WT 34.8±7.5 1-Jmol/day, p=0.01). To confirm that preserved NO bioavailability in the Ang 11-infused KOs led to their lower BP vs. WTs, we blocked NO generation in the groups with L-NAME starting on day 7 of Ang II when the WT and KO BPs were 179±3 vs. 165±6 mm Hg (p<0.01). By day 14, BPs converged (186±5 vs. 185±8; p=NS), (FIG. 2.) As NO is known to inhibit the NKCC2 sodium transporter in the kidney, NKCC2 activity at day 10 of Ang II was measured by quantitating urine sodium to creatinine ratios (UNa/UCr) 3 hours after an IP injection of saline with or without furosemide. […] Thus, reduced NKCC2 activity in the IL-1 R KOs protects them from Ang 11-induced sodium retention. […]

NKCC2 = NKCC2 activity: 3-hour urine sodium to creatinine ratio after acute IP furosemide challenge at day 10 of Ang II; type: in vivo, mice; settings: for urine sodium to creatinine ratio: 3-hour sodium excretion after IP furosemide
Text: Because IL-1 is secreted by macrophages, macrophage infiltration into the kidneys of the experimental animals was examined. After 4 weeks of hypertension, IL-1R KO kidneys contained more F4/80+ macrophages than WTs (18±1 vs. 14±2 per HPF; p=0.03). […] In turn, the KO group had enhanced renal mRNA expression of the NO-generating enzyme iNOS (1.7±0.3 vs. 1.0±0.2 au; p<0.05) and higher excretion of NO metabolites vs. WTs (152±46 vs. 60±15 nmol/mg Cr; p=0.05). NO inhibits renal sodium (Na) reabsorption, and during the 2″d wk of Ang II infusion when WT and KO BPs separated, only the KOs entered negative Na balance (−16.8±16.8 vs. WT 34.8±7.5 1-Jmol/day, p=0.01). To confirm that preserved NO bioavailability in the Ang 11-infused KOs led to their lower BP vs. WTs, we blocked NO generation in the groups with L-NAME starting on day 7 of Ang II when the WT and KO BPs were 179±3 vs. 165±6 mm Hg (p<0.01). By day 14, BPs converged (186±5 vs. 185±8; p=NS), (FIG. 2.) As NO is known to inhibit the NKCC2 sodium transporter in the kidney, NKCC2 activity at day 10 of Ang II was measured by quantitating urine sodium to creatinine ratios (UNa/UCr) 3 hours after an IP injection of saline with or without furosemide. […] Thus, reduced NKCC2 activity in the IL-1 R KOs protects them from Ang 11-induced sodium retention.
Therefore, to examine NKCC2 activity in the groups at day 10 of Ang II when the differences in sodium excretion was noted, 3-hour sodium excretion was quantitated in response to an acute intraperitoneal (IP) furosemide challenge (FIG. 8). In response to IP saline injection alone, the IL-1RKO mice had exaggerated urine sodium to creatinine ratios, consistent with their enhanced natriuresis in original balance study (237±38 vs. 120±9%; p=0.016). […] Without being bound by a particular theory, it is believed that IL-1 receptor activation stimulates renal sodium reabsorption via NKCC2-mediated sodium transport during Ang II-dependent HTN.

[1] = test system: wild-type mice in AngII-dependent hypertension model; experiment: Ang II-dependent hypertension model, blood pressure by radiotelemetry; type: in vivo
Protocol: To study the role of IL-1 receptor (IL-1 R) activation in hypertension, uni-nephrectomized IL-1 R-deficient(IL-1R KO) and wild-type (WT) mice was chronically infused with angiotensin II (Ang II; 1000 ng/kg/min) for 4 weeks using an implanted osmotic mini-pump after measurement of baseline blood pressures. Chronic angiotensin II infusion in rodents is a widely accepted model of hypertension that leads to the same complications in rodents as those seen in humans including cardiac hypertrophy and kidney damage. Unilateral nephrectomy renders the remaining kidney more susceptible to injury in this hypertension model. In the experiments of the disclosure baseline mean arterial pressures (MAPs) were similar between groups.
In the present disclosure, Anakinra was administered at 50 mg/kg/day IP to wild-type mice in AngII-dependent hypertension model.
FIG. 3B illustrates the effect of treatment with 50 mg/kg/day IP once daily beginning 3 days prior to and continuing throughout the Ang II infusion period.
Uni-nephrectomized IL-1 R-deficient(IL-1R KO) and wild-type (WT) mice was chronically infused with (1000 ng/kg/min) for 4 weeks using an implanted osmotic mini-pump after measurement of baseline blood pressures. […] Blood pressure was monitored continuously using radiotelemetry.

Ang II-infused mice = experiment: Target organ damage (cardiac hypertrophy, albuminuria) in Ang II-induced hypertension; type: in vivo; settings: Ang II-infused mice treated with anakinra
Protocol: For example, the Ang 11-infused IL-1 R KO mice had less cardiac hypertrophy than WJ mice as measured by heart weight/body weight ratios (7.5±0.9 vs. 9.3±0.8 mg/g, p<0.001). Loss of albumin in the urine is a marker for kidney glomerular damage in humans, and Ang 11-infused IL-1 R KO mice had nearly 40% less in albuminuria than Ang 11-infused WT animals (5.90±0.93 vs. 9.38±1.43 mg/mg Cr; p=0.05). […] Thus, the lower blood pressures in IL-1 receptor-deficient mice led to reduced hypertensive damage to the heart and kidney.
Uni-nephrectomized IL-1 R-deficient(IL-1R KO) and wild-type (WT) mice was chronically infused with (1000 ng/kg/min) for 4 weeks using an implanted osmotic mini-pump after measurement of baseline blood pressures. The mice were then treated with vehicle or anakinra (50 mg/kg/day IP) once daily beginning 3 days prior to and continuing throughout the Ang II infusion period (FIG. 3). Blood pressure was monitored continuously using radiotelemetry.
Next, levels of albuminuria, which is a marker for kidney damage, were measured in Ang II-infused IL-1R Kos and wild type mice. It was observed that the levels of albuminuria were reduced by 37% in the IL1R KO mice vs. the wild type: 5899±929 vs. 9380±1423, n=9,10, p=0.052 (37.1% reduction); for 24 hour albuminuria, 3574 vs. 5082, p=0.0810 (30.4% reduction).

[2] = test system: patients with rheumatic diseases; settings: in vivo; cited from earlier work

For `COC(=O)[C@@H](N)CCCNC(=N)N[N+](=O)[O-]` [L-NAME, L-Nitroarginine Methyl Ester], the “blood pressure following L-NAME treatment” value (NO generation; IL-1R KO mice) was 185±8 mm Hg and the “blood pressure following L-NAME treatment” value (NO generation; WT mice) was 186±5 mm Hg.

In the case of `NS(=O)(=O)c1cc(C(=O)O)c(NCc2ccco2)cc1Cl` [furosemide], the “urine sodium to creatinine ratio” value (NKCC2; IL-1R KO mice) is reported as 481±103%, the “urine sodium to creatinine ratio” value (NKCC2; WT mice) is reported as 453±56% and the “urine sodium to creatinine ratio (UNa/UCr)” value (NKCC2; WT mice, 3 hours after IP furosemide) is reported as 453±60 mmollmmol.

In the case of “Anakinra: recombinant, nonglycosylated form of the human interleukin-1 receptor antagonist (IL-1Ra) with an added N-terminal methionine, 153 amino acids”, the “ability to limit blood pressure elevation / protection from hypertension” value ([1]; 50 mg/kg/day IP once daily, during Ang II infusion (1000 ng/kg/min)) is reported as “as robust as genetic deletion of the receptor; also recorded: as profound as that seen in the IL-1R KO mice”, the “effect on baseline blood pressure” value ([1]; 50 mg/kg/day IP, before Ang II infusion (Pre)) is reported as “no impact; also recorded: no effect” and the “decrease in cardiac hypertrophy” value (Ang II-infused mice; FIG. 9A) is reported as “as profound as that seen in the IL-1R KO mice”. The decrease in albuminuria (Ang II-infused mice; FIG. 9B) was “as profound as that seen in the IL-1R KO mice” and the “hypotension in clinical trials” value [2] was “lack of hypotension”.
